{"source": "patent US20180147256A1", "about": "“MEANS AND METHODS FOR TREATING FACIOSCAPULOHUMERAL MUSCULAR DYSTROPHY (FSHD)” (ACADEMISCH ZIEKENHUIS LEIDEN H.O.D.N. LUMC, priority 2015, published 2018)", "test_system": "DUX4", "test": "DUX4 transcript levels in FSHD primary muscle cell cultures treated with PR-619", "type": "cell-based", "settings": "DUX4 expressing human primary FSHD myoblasts; 5 μM, 10 μM and 20 μM", "experimental": "To further confirm the hypothesis that sumoylation is relevant for repression of DUX4, PR619 was used as inhibitor for the removal of SUMO substrates from their proteins. PR619 is a non-selective inhibitor of deubiquitinases and ubiquitin-like isopeptidases (like the family of SENP isopeptidases). […] DUX4 expressing human primary FSHD myoblasts were treated with 3 different concentrations of PR619 (5 μM, 10 μM and 20 μM) and cells were harvested for RNA isolation. […] Thus PR619 treatment of DUX4 expressing primary FSHD myotubes leads to DUX4 downregulation.\nHuman primary myoblast cell lines were originating from the University of Rochester bio repository (http://www.urmc.rochester.edu/fields-center/). Muscle samples were obtained after subjects were consented under a protocol approved by the institutional review board at the University of Rochester. […]\nMyoblast and myotube samples were harvested for RNA isolation by adding QIAzol lysis reagent (#79306 Qiagen N.V., Venlo, The Netherlands). […] Gene specific cDNA products were quantified by qPCR in duplicate using SYBR green master mix supplemented with gene specific primers (table S2) using the CFX96 system (Bio-Rad, Veenendaal, The Netherlands). Data were analyzed by Bio-Rad CFX manager version 3.0 (Bio-Rad) using GAPDH and GUSB as reference genes.", "data": [{"smiles": "N#CSc1cc(SC#N)c(N)nc1N", "note": "[PR-619, 2,6-Diamino-3,5-dithiocyanopyridine]", "values": [{"measurement": "DUX4 transcript levels", "value": "decreased in cells treated with PR-619 in a dose dependent manner"}]}]}
